This note sets out measurements from ChEMBL document CHEMBL1201862, “PubChem BioAssay data set” (2004).

Usually AC50 stands for the concentration at which the activity in the assay is half-maximal. What is called IC50 is the point on the concentration scale where inhibition reaches its midpoint. A word on the CC50: it is the concentration at which the toxic effect on the cells reaches its halfway point. What is called EC50 is the concentration that produces a half-maximal response.

Active and inactive are the calls of the source.

For assay [1], the target named is Latent membrane protein 1 (Human herpesvirus 4 (strain B95-8), UniProt P03230). In words: TES1-eGFP NF-kB reporter inhibition versus Tet-On dsRED, dose response, selectivity assay for LMP1 NF-kB inhibitor project, imaging, HEK293T, dual-color eGFP/dsRED, cherry-picks (AID 588398). Format: functional, cell-based.
For assay [2], the system named is HEK293. Put plainly: inhibitors of LMP1-driven NF-kB reporter, dose response, cell-based, HEK293, luciferase, cherry-pick (AID 588343). In kind it is functional. The following applies: Homo sapiens.
In the next assay the target is Genome polyprotein (dengue virus type 2, UniProt P29990). In words: Dengue-2 NS5 methyltransferase inhibitors, primary screen, biochemical, confirmation dose response (AID 588689). Format: functional.
Assay [3] has as its system HEK293. In words: cells. In kind it is functional, cell-based. The following applies: Homo sapiens.
The subject of another assay is Vero. In words: Vero cell cytotoxicity, cytotoxicity control for flavivirus capping enzyme inhibitors (AID 588742). In kind it is functional. The settings on record: Chlorocebus sabaeus.
In the next assay the target is T1, Streptokinase A (Streptococcus pyogenes serotype M1, UniProt P10520).
T1 sequence (P10520 whole entry): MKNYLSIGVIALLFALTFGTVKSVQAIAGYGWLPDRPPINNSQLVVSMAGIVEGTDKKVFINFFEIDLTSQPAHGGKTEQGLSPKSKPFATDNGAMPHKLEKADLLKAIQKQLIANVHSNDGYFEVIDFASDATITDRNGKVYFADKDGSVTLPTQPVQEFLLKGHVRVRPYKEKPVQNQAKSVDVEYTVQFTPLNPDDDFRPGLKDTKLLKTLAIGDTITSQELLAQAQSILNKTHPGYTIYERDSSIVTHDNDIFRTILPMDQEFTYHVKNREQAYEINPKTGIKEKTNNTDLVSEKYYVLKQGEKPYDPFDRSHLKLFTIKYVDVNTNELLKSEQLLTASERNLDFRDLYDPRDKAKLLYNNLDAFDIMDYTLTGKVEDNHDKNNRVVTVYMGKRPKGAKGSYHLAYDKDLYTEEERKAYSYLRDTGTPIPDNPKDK
In words: S. pyogenes streptokinase expression inhibitors, potency, dose response, plasminogen activation absorbance, OD405 (AID 1914).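 Note: secreted streptokinase activity via plasminogen activation per viability signal from cell pellet.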 Format: functional, Streptococcus pyogenes M1 GAS.

Assay [4] concerns HEK293. Put plainly: NOD1 signaling inhibitors, primary screen, cell-based, luminescence, uHTS (AID 1578). The settings on record: Homo sapiens. In kind it is functional.
The subject of assay [5] is HEK293. Put plainly: NOD2 signaling inhibitors in MDP-stimulated cells, cell-based, uHTS, luminescence (AID 2001). In kind it is functional. The settings on record: Homo sapiens.
A further assay has as its target Phospholipase A2 (Homo sapiens, UniProt P04054). Format: functional.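 Note: confirmatory dose-response counterscreen on phospholipase A2, testing hits that came from an ultra-high-throughput screen for ATG4B inhibitors.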
The test system of assay [6] is Streptococcus sp. 'group A'. Put plainly: growth inhibition of control SK(-) GAS strain, dose response, counter-screen for streptokinase expression inhibitor project, luminescence, kanamycin, BacTiterGlo, confirmation (AID 1900). Format: functional, organism-based.
The next assay relates to Streptococcus. In words: Group A Streptococcus viability loss, dose response, counter-screen for streptokinase expression inhibitor project, luminescence, BacTiterGlo (AID 1915).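 Note: potency for reduction of bacterial viability or growth.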 Format: functional, organism-based. Background: Counterscreens check selectivity or assay interference.
Assay [7] can be described thus: HIV-1 Env-mediated cell fusion inhibitors, dose response, CCR5-tropic Env (AID 2279). Format: functional.
Assay [8] relates to HEK293. In words: cells. Format: functional, cell-based. The following applies: Homo sapiens. This is another data set of the same source.
Another assay has as its target Cysteine protease ATG4B (Homo sapiens, UniProt Q9Y4P1). In kind it is functional.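 Note: Fluorescence-based dose-response confirmation assay measuring inhibition of ATG4B activity.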
Assay [9] has as its system INS1. In words: caspase-3/7 inhibition in cytokine-treated INS-1E, dose response, beta-cell apoptosis inhibitor project, cell-based, caspase luminescence, dry powder (AID 488848). In kind it is functional. The settings on record: Rattus norvegicus.
For assay [10], the system named is INS1. In words: inhibitors of cytokine-induced nitrite release, dose response, cell-based, Griess absorbance, INS-1E, dry powder, set 2 (AID 488868). The settings on record: Rattus norvegicus. Format: functional. On the technique in general: Griess reagent forms a coloured azo dye with nitrite.
A further assay deals with Phospholipase D2 (Homo sapiens, UniProt O14939). In words: PLD2 inhibitor potency in cells, dose response (AID 602147).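 Note: cellular assay in HEK293 cells overexpressing GFP-tagged PLD2.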 In kind it is functional.
In the next assay the target is Phospholipase D1 (Homo sapiens, UniProt Q13393). Put plainly: PLD1 inhibitor potency in cells, dose response (AID 602151).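 Note: cellular PLD1 assay in Calu-1 cells stimulated with PMA.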 Format: functional.
Assay [11] concerns the target T2, CAAX prenyl protease 2 (Saccharomyces cerevisiae S288c, UniProt Q03530).
T2 sequence (Q03530 whole entry): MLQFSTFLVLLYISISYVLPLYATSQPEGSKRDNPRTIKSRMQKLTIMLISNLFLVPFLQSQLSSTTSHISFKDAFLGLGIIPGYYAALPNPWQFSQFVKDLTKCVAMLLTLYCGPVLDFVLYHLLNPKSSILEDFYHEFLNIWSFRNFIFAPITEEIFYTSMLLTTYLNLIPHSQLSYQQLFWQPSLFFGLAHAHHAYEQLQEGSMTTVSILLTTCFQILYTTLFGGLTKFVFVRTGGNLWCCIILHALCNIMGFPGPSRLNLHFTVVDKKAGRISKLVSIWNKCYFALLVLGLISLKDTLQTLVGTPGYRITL
Format: biochemical.

The target of assay [12] is T2, CAAX prenyl protease 2. In words: yeast Rce1 CaaX protease inhibitors, dose response, biochemical, plate reader, dry powder retest (AID 588851).

Latent membrane protein 1, sequence (P03230 whole entry): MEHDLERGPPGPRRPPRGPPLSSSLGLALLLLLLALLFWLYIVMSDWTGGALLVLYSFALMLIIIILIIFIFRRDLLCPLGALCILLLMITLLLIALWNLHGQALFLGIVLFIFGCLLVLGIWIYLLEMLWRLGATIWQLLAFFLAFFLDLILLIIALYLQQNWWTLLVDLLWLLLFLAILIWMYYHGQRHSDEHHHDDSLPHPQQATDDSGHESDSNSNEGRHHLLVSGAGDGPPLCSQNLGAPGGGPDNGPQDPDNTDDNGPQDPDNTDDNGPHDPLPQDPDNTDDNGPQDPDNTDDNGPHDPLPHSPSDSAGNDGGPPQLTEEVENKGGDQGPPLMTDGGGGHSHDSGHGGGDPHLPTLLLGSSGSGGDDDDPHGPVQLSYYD
Phospholipase D2, sequence (O14939 whole entry): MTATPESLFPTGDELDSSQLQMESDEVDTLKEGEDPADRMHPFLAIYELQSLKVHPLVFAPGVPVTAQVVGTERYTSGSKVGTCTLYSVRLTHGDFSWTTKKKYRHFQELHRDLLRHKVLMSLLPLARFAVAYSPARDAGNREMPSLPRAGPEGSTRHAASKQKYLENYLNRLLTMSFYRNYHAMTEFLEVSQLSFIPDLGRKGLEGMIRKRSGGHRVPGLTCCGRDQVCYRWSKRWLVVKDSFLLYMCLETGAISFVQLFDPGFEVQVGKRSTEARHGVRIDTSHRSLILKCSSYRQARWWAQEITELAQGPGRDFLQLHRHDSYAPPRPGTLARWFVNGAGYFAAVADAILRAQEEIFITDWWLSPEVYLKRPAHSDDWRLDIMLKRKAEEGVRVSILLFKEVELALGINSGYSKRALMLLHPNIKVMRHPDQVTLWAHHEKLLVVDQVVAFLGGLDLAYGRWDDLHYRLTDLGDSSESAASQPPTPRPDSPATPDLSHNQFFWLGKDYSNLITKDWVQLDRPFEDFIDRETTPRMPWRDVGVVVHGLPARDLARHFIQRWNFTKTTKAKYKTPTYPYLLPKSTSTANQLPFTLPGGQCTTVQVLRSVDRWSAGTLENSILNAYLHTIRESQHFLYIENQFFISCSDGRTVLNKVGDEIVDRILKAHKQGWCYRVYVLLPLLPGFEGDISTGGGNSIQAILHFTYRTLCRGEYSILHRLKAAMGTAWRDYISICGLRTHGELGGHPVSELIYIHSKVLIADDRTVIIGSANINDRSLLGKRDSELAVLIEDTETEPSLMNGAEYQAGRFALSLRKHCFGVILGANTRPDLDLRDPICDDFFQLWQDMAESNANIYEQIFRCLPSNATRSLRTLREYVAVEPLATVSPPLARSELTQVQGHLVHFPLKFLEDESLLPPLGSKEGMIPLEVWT
Phospholipase A2, sequence (P04054 whole entry): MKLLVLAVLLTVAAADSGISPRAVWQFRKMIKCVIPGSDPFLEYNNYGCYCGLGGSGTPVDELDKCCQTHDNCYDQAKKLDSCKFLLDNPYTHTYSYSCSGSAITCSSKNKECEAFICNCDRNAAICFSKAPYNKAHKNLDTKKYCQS
Genome polyprotein, sequence (P29990 2492-3391 limits assumed): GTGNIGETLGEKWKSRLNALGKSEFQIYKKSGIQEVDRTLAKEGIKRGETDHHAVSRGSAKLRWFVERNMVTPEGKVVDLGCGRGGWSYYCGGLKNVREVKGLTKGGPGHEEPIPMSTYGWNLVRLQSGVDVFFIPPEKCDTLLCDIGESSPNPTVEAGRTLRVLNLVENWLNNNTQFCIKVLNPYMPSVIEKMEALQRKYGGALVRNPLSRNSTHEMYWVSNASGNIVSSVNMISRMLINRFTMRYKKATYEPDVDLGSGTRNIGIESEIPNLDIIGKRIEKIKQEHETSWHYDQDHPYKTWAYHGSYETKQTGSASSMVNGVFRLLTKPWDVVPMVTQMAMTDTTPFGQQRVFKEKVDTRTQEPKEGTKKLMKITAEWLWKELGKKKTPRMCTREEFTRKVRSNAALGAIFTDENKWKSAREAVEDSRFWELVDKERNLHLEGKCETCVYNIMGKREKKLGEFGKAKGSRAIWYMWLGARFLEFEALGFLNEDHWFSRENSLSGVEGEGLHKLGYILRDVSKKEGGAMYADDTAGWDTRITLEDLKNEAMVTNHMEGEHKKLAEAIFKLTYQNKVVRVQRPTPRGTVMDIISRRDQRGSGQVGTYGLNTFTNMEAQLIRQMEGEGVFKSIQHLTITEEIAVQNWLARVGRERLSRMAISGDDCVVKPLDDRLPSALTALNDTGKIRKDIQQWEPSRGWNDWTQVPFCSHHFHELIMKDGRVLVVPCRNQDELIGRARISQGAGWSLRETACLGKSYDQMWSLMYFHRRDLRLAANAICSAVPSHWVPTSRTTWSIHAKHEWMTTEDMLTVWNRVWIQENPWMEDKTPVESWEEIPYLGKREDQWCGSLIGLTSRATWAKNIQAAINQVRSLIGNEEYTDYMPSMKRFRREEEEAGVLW
Cysteine protease ATG4B, sequence (Q9Y4P1 whole entry): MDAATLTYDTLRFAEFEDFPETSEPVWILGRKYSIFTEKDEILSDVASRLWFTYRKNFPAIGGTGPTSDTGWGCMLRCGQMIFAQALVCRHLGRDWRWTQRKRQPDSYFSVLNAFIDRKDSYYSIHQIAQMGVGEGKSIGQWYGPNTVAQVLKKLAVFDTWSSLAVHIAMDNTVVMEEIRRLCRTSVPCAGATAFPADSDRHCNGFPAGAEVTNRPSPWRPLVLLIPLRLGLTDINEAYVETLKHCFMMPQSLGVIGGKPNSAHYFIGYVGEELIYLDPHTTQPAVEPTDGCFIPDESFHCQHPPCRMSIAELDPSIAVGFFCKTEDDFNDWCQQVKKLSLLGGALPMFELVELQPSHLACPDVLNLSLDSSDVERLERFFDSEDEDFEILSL
Phospholipase D1, sequence (Q13393 whole entry): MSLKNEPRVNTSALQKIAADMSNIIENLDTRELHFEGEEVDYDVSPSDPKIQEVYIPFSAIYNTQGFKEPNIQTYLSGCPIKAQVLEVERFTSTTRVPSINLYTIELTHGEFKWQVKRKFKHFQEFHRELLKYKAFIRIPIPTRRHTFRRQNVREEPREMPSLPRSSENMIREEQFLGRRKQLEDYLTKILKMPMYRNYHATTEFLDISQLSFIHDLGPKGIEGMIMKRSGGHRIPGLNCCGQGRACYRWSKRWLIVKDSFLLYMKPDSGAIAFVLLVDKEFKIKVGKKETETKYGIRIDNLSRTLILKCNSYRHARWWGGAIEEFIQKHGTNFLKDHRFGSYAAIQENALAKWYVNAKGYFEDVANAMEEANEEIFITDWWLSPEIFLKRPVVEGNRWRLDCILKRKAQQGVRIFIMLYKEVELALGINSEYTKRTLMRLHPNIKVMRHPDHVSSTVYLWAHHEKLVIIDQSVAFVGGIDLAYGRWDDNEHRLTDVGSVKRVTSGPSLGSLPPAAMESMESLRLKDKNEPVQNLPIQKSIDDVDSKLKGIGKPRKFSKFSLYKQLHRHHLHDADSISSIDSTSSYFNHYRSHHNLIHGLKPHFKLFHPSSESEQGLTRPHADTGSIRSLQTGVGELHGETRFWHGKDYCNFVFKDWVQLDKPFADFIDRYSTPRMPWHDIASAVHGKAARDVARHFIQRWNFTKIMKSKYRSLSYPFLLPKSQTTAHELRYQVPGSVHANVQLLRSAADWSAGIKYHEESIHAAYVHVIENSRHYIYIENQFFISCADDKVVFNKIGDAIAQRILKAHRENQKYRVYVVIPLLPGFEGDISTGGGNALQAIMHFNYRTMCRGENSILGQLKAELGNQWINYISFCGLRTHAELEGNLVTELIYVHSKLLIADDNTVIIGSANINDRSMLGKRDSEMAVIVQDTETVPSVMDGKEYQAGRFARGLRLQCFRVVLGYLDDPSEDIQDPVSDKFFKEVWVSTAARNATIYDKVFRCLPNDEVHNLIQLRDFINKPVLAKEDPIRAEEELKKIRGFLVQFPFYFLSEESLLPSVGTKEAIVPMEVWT

`O=C(OC1CCN(CCCl)CC1)C(c1ccccc1)c1ccccc1`: the concentration at half-maximal activity (AC50) in [1] was 24.2 µM (active); in the assay on HEK293 [2] it was 24.3 µM (active).

Consider `O=C(O)CCn1cc(/C=C/C(=O)c2ccc(Cl)cc2)c(-c2cccc(Br)c2)n1`, for which the half-maximal inhibitory concentration (IC50) is 52.4 µM (active) on Genome polyprotein; 17.9 µM (active) in the assay with HEK293 [3]; 4.06 µM (active) in the assay on HEK293 [5]; 8.65 µM (active) on Phospholipase A2; 27.8 µM (active) in [7]; 10.6 µM (active) in the assay with HEK293 [8]. In addition, the half-maximal inhibitory concentration (IC50) on Cysteine protease ATG4B was 13.5 µM (active). In the assay with Vero, the CC50 is > 40 µM (active). In addition, the half-maximal effective concentration (EC50) is 0.874 µM (active) at Streptokinase A, 6.52 µM (active) in the assay with HEK293 [4], 4.35 µM (active) in assay [6] and 6.69 µM (active) with Streptococcus.

As for `COc1ccc(S(=O)(=O)N(C)C[C@@H]2Oc3c(NC(=O)c4cccc5ccccc45)cccc3C(=O)N([C@@H](C)CO)C[C@H]2C)cc1`, the AC50 is > 195 µM (inactive) with INS1 [9] and 84.8 µM (active) in the assay with INS1 [10].

For the molecule `C[C@@H](CN1CCC(n2c(=O)[nH]c3ccccc32)CC1)NC(=O)c1cc2cc(F)ccc2[nH]1`, the half-maximal inhibitory concentration (IC50) at Phospholipase D2 was 0.13 µM (active); at Phospholipase D1, 0.001 µM (active).

As for `Nc1nonc1-n1nnc(C(=O)N/N=C/c2cccc(Cl)c2)c1CSc1ccc(Cl)cc1`, the AC50 at CAAX prenyl protease 2 [11] is 0.136 µM (active); at CAAX prenyl protease 2 [12] it was 3.15 µM (active).
